Where two headings read alike, the source gives them in different places.
What was measured:
[1] = system: isolated hearts; settings: 5-minute succinate infusion
Description: (§1) Spraque-Dawley rats (250 to 300 g; Sasco Inc., Omaha, Nebr.) were fasted overnight to standardize the levels of glycogen and fatty acids. The animal protocol was reviewed and approved by an appropriate Animal Care and Research Committee. All animals received humane care in compliance with the “Guide for the Care and Use of Laboratory Animals” (NIH Publication No. 85-23, revised 1985). All chemicals were obtained from Sigma (St. Louis, Mo.).
As previously described by Banerjee et al, the hearts from rats anticoagulated with heparin were excised, immediately arrested in iced oxygenated perfusate, placed on a modified Langendorff apparatus, and retrograded perfused at a constant pressure of 70 mm Hg with nonrecirculating Krebs-Henseleit solution saturated with a gas mixture of 92.5% O2 and 7.5% CO2 Banerjee et al., Circ. Res., 73, 649 (1993). A water-filled latex balloon was inserted into the left ventricle (LV) and the balloon volume was adjusted to achieve a stable LV end-diastolic pressure of 5 mm Hg. This volume was then kept constant for the duration of the study. Pacing wires were fixed to the right atrium, and the hearts were paced at 350 beats per minute except during ischemia and the first three minutes of reperfusion.
The left ventricular developed pressure (LVDP, in mm Hg) was used as an index of myocardial function and was continuously recorded with a computerized bridge amplifier/digitalizer (Maclab 8, AD Instruments) and a Macintosh AV 7100 (Apple Computer). Hearts unable to initially produce 90 to 120 mm Hg LVDP when paced at 350 beats per minute were discarded. A stopcock above the aortic root was turned to create global ischemia, during which time the heart was placed in a degassed humidified chamber at 37° C.
The myocardial cytochrome a,a3 redox state, oxymyoglobin (MbO2) and deoxymyoglobin, was continuously monitored using near infrared spectroscopy (NIRS). The use of NIRS to study cardiac metabolism was described previously. In this study, a single NIRS probe (as disclosed in co-pending U.S. patent application Ser. No. 08/672,625) containing five fiber optic bundles (four peripherally arranged to supply infrared light (700 to 1000 nm) and one fiber positioned 4 mm away to receive the transmitted light) was placed on the lift ventricle. For each heart, a signal reference zero value is set at the beginning of the study. The resultant signal changes are continuously processed and recorded using analytic algorithms to separate the effects of each of the signals. The resulting NIRS measurements were taken directly from the monitor and plotted in absorption units versus time. These strips were then printed and saved for subsequent analysis.
In the second phase of the study, 12 isolated hearts were placed on the Langendorff apparatus as described above. After the equilibration period, 5-minute infusions of succinate at concentrations of 0, 2 ,20 ,200, and 2000 μmol/L were delivered via a Harvard infusion pump directly into a port above the aortic cannula at 0.068 mL/minute. LVDP, heart rate, cytochrome a,a3 redox state, MbO2 and deoxymyoglobin were continuously monitored as described above.

[2] = system: isolated hearts
Description: as §1
As previously described by Banerjee et al, the hearts from rats anticoagulated with heparin were excised, immediately arrested in iced oxygenated perfusate, placed on a modified Langendorff apparatus, and retrograded perfused at a constant pressure of 70 mm Hg with nonrecirculating Krebs-Henseleit solution saturated with a gas mixture of 92.5% O2 and 7.5% CO2 Banerjee et al., Circ. Res., 73, 649 (1993). […]
The left ventricular developed pressure (LVDP, in mm Hg) was used as an index of myocardial function and was continuously recorded with a computerized bridge amplifier/digitalizer (Maclab 8, AD Instruments) and a Macintosh AV 7100 (Apple Computer). […]
The myocardial cytochrome a,a3 redox state, oxymyoglobin (MbO2) and deoxymyoglobin, was continuously monitored using near infrared spectroscopy (NIRS). […] The resultant signal changes are continuously processed and recorded using analytic algorithms to separate the effects of each of the signals. […]

[3] = lower concentrations, non-ischemic heart

For `O=C(O)CCC(=O)O` [succinate], the “LVDP (left ventricular developed pressure)” value (from here on “LVDP”) ([1]; 20 μmol/L) was “not different from control”, the “cytochrome a,a3 redox state” value ([1]; 20 μmol/L) was “reduction of the cytochrome a,a3 redox state” and the “LVDP” value ([1]; 200 μmol/L) was “not different from control”. For the same compound, the “cytochrome a,a3 redox state” value ([1]; 200 μmol/L) was “reduction of the cytochrome a,a3 redox state”, the “LVDP” value ([1]; 2000 μmol/L) was “markedly reduced” and the “cytochrome a,a3 redox state” value ([1]; 2000 μmol/L) was “markedly reduced”. For the same compound, the “LVDP” value [1, 3] was “minimal effects”, the “cytochrome a,a3 redox state” value [1, 3] was “minimal effects” and the “cytochrome a,a3 redox state on reperfusion” value ([2]; 200 μmol/L succinate for first 5 minutes of reperfusion after 20 min global ischemia, versus control buffer) was “attenuation of the oxidation”. The “coupling relationship between oxyhemoglobin and the redox state of cytochrome a,a3” value ([2]; succinate given early in reperfusion at the described dosages) was “restores the coupling relationship”.

Reference: patent publication US6712802B1, “Metabolic therapy directed at electron transport” (priority 1997, dated 2004)
